Measured values published in US8030466B2, “3′-o-fluorescently modified nucleotides and uses thereof” (Korea Institute of Science and Technology, priority 2009, dated 2011).

Target: T1, Therminator II DNA polymerase (Thermococcus sp., UniProt Q56366, A485L/D141A/E143A/Y409V)
T1 construct: purchased New England Biolabs, Inc. (printed for the ThermoPol II buffer; inferred for the enzyme)
Assay: Extension of DNA primer with MRT by polymerase (MALDI-TOF MS readout)
Type: biochemical
Protocol: The reaction was consisted of 20 cycles at 94° C. for 20 sec, 46° C. for 40 sec, and 60° C. for 90 sec. After the reaction, the mixture was incubated with strepatavidin-coated magnetic beads ([…], Dynabead MyOne, Invitrogen) in PBS buffer ([…]) at room temperature for 30 min.
After removing a fluorescent group from the 3′-end as the same manner as described in Example 4, the obtained DNA was purified by reverse-phased HPLC. The purified DNA was used as a primer for the second extension reaction with the MRT. The extension was performed by the same manner as described in Example 2. The resultant product was characterized using MALDI-TOF mass spectrometry (FIG. 3d).

T1 sequence (Q56366 whole entry D141A/E143A/Y409V/A485L): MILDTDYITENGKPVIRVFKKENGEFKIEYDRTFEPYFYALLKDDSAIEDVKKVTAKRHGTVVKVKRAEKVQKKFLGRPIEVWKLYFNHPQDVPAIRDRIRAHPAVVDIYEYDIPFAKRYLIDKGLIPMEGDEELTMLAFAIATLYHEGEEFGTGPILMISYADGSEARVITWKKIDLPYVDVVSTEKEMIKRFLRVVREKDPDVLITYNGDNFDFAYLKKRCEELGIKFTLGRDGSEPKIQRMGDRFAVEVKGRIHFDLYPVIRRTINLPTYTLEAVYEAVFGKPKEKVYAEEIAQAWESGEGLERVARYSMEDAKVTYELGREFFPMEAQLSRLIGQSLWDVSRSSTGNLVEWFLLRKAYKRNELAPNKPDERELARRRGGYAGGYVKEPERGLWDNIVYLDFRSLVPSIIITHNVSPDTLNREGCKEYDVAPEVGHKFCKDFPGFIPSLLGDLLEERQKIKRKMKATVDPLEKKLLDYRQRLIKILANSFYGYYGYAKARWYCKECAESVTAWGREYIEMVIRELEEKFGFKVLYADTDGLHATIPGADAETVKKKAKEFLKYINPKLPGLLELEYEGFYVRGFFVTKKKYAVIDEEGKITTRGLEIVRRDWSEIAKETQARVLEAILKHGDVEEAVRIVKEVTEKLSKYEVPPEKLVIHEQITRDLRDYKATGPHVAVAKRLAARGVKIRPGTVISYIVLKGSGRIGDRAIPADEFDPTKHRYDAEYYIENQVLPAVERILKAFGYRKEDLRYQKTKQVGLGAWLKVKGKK

“3′-O-(7-hydroxycoumarin)-dTTP [Compound 13]” was tested, and the “primer extension by MRT” value (biotinylated primer/template, 4 units Therminator II DNA polymerase, 20 cycles) was “the primer was extended by MRT” and the “second primer extension by MRT after label elimination” value (deprotected, HPLC-purified extended primer used as primer, Therminator II DNA polymerase) was “the primer chain could be extended again by another MRT”.
